The values that follow are results of earlier work, collected in patent US11512314B2, “Amphiphilic polynucleotides” (Duke University, priority 2019, dated 2022).

For orientation: Kd means the equilibrium constant for the complex coming apart. By half-life is commonly meant the time in which the quantity being followed falls by half.

In data set [1] the target is prostate-specific membrane antigen (PSMA) (Homo sapiens, UniProt Q04609). Conditions: binding to PSMA.
For data set [2] the following is noted: free 5FU, reported value.
For data set [3] the following is noted: small molecule drug.

Like-named read-outs stand apart in the source and are kept apart here.

Chain of prostate-specific membrane antigen (PSMA) (Q04609 whole entry): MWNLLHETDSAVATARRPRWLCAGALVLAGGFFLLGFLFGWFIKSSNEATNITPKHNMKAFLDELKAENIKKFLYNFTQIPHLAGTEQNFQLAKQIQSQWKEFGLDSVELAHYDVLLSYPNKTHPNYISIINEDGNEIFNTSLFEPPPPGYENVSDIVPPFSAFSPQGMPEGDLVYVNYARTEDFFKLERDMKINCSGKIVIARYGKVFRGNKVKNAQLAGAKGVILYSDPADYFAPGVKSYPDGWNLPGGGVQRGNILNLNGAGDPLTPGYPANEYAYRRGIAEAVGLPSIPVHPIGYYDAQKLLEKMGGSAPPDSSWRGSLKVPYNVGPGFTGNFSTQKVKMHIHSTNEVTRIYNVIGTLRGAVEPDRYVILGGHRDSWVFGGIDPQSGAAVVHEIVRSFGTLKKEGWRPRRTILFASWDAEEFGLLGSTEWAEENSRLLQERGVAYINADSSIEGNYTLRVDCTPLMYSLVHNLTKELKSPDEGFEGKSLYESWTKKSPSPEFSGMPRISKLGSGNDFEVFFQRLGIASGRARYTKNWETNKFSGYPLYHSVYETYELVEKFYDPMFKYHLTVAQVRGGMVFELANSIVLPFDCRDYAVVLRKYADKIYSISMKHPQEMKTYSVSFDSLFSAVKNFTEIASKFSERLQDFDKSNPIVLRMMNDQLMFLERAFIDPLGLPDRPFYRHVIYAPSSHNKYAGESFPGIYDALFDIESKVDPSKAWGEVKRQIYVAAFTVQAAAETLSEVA

In the case of “5′-GGGAGGACGAUGCGGAUCAGCCAUGUUUACGUCACUCCU-3′ (listed as RNA, chemistry not given here) [A10]”, the dissociation constant (Kd) in data set [1] was 2.1 nM.

`O=c1[nH]cc(F)c(=O)[nH]1` [5FU]: the “reported MTD” value is 15 to 20 mg/kg in data set [2] and 20 mg/kg in data set [2] (listed as 5-FU). The half-life in data set [3] is 8 to 14 min.
